The target of series [1] is T1, sodium channel (ENaC), canine bronchial epithelia (Canis lupus familiaris, UniProt A0A8I3MKE6+A0A8I3Q679+Q95165).
T1 construct: endogenous in cells; host or cells: primary canine bronchial epithelial cells cultured at air-liquid interface, mounted in Ussing chambers
T1 sequence (A0A8I3Q679 1-649): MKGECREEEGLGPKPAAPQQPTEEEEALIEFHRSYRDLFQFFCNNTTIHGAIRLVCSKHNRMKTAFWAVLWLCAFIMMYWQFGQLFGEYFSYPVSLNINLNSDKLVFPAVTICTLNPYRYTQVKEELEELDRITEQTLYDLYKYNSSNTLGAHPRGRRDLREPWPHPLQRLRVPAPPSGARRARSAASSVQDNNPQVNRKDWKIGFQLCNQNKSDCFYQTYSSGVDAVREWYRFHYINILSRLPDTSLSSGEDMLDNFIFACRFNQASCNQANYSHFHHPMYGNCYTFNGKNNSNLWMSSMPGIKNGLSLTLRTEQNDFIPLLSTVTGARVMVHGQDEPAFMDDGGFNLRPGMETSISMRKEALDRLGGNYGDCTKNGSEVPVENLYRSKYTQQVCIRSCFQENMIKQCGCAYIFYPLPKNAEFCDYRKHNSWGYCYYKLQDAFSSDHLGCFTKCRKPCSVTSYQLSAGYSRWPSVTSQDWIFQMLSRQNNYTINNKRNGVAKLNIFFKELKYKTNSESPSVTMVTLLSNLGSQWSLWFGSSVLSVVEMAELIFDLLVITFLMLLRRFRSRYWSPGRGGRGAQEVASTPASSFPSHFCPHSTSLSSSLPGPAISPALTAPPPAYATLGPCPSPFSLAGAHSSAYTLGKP
T1 sequence (Q95165 1-641): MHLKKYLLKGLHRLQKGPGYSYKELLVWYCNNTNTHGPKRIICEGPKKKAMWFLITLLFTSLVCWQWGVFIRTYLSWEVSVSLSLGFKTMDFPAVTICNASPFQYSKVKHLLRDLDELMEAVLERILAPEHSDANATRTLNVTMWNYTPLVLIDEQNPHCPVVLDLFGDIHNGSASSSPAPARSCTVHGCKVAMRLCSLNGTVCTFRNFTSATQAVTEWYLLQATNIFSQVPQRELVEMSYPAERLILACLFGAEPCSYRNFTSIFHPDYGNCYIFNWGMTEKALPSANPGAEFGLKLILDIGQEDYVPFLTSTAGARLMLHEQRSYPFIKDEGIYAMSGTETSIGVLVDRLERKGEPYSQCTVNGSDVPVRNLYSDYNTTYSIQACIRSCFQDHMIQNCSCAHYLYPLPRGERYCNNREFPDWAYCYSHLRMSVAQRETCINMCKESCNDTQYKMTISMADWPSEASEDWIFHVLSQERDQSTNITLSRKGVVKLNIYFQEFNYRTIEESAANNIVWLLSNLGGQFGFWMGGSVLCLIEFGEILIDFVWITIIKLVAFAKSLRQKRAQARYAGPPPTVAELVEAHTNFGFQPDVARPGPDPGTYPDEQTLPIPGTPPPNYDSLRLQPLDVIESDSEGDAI
T1 sequence (A0A8I3MKE6 1-646): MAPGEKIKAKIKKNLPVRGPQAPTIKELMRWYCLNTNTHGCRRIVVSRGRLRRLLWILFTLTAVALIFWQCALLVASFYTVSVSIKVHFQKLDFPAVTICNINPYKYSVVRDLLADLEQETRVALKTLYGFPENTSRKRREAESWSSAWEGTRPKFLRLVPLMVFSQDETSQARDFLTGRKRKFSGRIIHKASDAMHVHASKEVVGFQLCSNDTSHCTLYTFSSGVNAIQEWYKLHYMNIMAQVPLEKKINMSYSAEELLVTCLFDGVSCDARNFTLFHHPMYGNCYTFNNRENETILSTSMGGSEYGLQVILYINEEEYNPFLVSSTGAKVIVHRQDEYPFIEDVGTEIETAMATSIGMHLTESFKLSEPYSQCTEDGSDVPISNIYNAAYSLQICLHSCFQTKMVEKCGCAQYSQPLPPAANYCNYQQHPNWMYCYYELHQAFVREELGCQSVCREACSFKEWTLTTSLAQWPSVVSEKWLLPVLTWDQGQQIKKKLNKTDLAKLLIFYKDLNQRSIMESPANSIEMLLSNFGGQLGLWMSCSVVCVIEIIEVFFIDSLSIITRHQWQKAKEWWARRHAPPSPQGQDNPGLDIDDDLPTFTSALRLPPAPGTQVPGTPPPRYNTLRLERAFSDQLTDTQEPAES
The series is described as follows: In vitro measure of sodium channel blocking activity: inhibition of short circuit current (ISC) in airway epithelial monolayers in Ussing chambers. Particulars: mean of N runs; for Fold Amiloride** (PSA 4022 = 100) Mean: relative potency for PSA 4022 = 100 using EC50 from PSA 4022 in same run. In kind it is cell-based. As to the method:
One assay used to assess mechanism of action and/or potency of the compounds of the present invention involves the determination of lumenal drug inhibition of airway epithelial sodium currents measured under short circuit current (ISC) using airway epithelial monolayers mounted in Ussing chambers. Cells obtained from freshly excised human, dog, sheep or rodent airways are seeded onto porous 0.4 micron Snapwell™ Inserts (CoStar), cultured at air-liquid interface (ALI) conditions in hormonally defined media, and assayed for sodium transport activity (ISC) while bathed in Krebs Bicarbonate Ringer (KBR) in Using chambers. All test drug additions are to the lumenal bath with half-log dose addition protocols (from 1×10^−11 M to 3×10^−5M), and the cumulative change in ISC (inhibition) recorded. All drugs are prepared in dimethyl sulfoxide as stock solutions at a concentration of 1×10^−2 M and stored at −20° C. […] After the maximal concentration (5×10^−5 M) is administered, the lumenal bath is exchanged three times with fresh drug-free KBR solution, and the resultant ISC measured after each wash for approximately 5 minutes in duration. Reversibility is defined as the percent return to the baseline value for sodium current after the third wash. All data from the voltage clamps are collected via a computer interface and analyzed off-line.
Dose-effect relationships for all compounds are considered and analyzed by the Prism 3.0 program.
PSA 4022 was also tested in each assay as a positive control.

Where a name gives a salt, the structure may show the parent alone.

This is an account of results in patent US7875619B2, “Hetero substituted sodium channel blockers” (Parion Sciences, Inc., priority 2004, dated 2011).

In general, melting point refers to the temperature, or range, at which the solid turns liquid. One may read the EC50 as the concentration at which the effect is half-maximal. Read a high EC50 as a need for much substance.

As to `COC(=O)C(N)CCOc1ccc(CCCCNC(=N)NC(=O)c2nc(Cl)c(N)nc2N)cc1` (centres unmarked) (as salt: hydrochloride) [PSA 17587, 2-amino-4-(4-{4-[N′-(3,5-diamino-6-chloropyrazine-2-carbonyl)-guanidino]butyl}phenoxy)butyric acid methyl ester hydrochloride], the melting point lay in the range of 88 to 90 °C.
`COC(=O)[C@H](N)CCCc1ccc(CCCCNC(=N)NC(=O)c2nc(Cl)c(N)nc2N)cc1` [PSA 19603, 2-(R)-amino-5-(4-{4-[N′-(3,5-diamino-6-chloropyrazine-2-carbonyl)-guanidino]butyl}phenyl)pentanoic acid methyl ester] returned a melting point of 76 to 79 °C. Moreover, in series [1], a half-maximal response (EC50) required 32.3 nM and the “Fold Amiloride** (PSA 4022 = 100) Mean” value came out at 39.4.
As to `N=C(NCCCCc1ccc(NCCNC[C@@H](O)CO)cc1)NC(=O)c1nc(Cl)c(N)nc1N` [PSA 16721, N-(4-{4-[{2-[((2R)-2,3-dihydroxypropyl)amino]ethylamino}phenyl)butyl-N′-(3,5-diamino-6-chloropyrazine-2-carbonyl)guanidinetrihydrochloride], in series [1], it took 25.4 nM to reach a half-maximal effect (EC50) and the “Fold Amiloride** (PSA 4022 = 100) Mean” value came out at 44.7.
In turn, `N=C(NCCCCc1ccc(OCCC(N)C(=O)O)cc1)NC(=O)c1nc(Cl)c(N)nc1N` (centres unmarked) [PSA 17666, 2-amino-4-(4-{4-[N′-(3,5-diamino-6-chloropyrazine-2-carbonyl)-guanidino]butyl}phenoxy)butyric acid] came in with a melting point of 178 to 180 °C. In addition, in series [1], the EC50 worked out at 29.3 nM and the “Fold Amiloride** (PSA 4022 = 100) Mean” value is 34.8.
Regarding `N=C(NCCCCc1ccc(OCC(=O)N(CCO)CCO)cc1)NC(=O)c1nc(Cl)c(N)nc1N` [PSA 16826, 2-(4-{4-[N′-(3,5-diamino-6-chloropyrazine-2-carbonyl)guanidino]-butyl}phenoxy)-N,N-bis-(2-hydroxyethyl)acetamide], in series [1], the EC50 was 12.7 nM and the “Fold Amiloride** (PSA 4022 = 100) Mean” value is listed as 64.9.
As to `Cl.N=C(N)NCCNC(=O)c1ccc(CCCCNC(=N)NC(=O)c2nc(Cl)c(N)nc2N)cc1` [PSA 11834, 4-{4-[N′-(3,5-diamino-6-chloropyrazine-2-carbonyl)guanidino]butyl}-N-(2-guanidinoethyl)benzamide hydrochloride], in series [1], the EC50 was found to be 3.68 nM and the “Fold Amiloride** (PSA 4022 = 100) Mean” value was determined as 276.
For `N=C(NCCCCc1ccc(NCC(N)=O)cc1)NC(=O)c1nc(Cl)c(N)nc1N` [PSA 15104, 2-(4-{4-[N′-(3,5-diamino-6-chloropyrazine-2-carbonyl)guanidino]-butyl}phenylamino)acetamide dihydrochloride], in that order: 19.1 nM and 26.4.
`N=C(NCCCCc1ccc(CCC[C@@H](N)C(=O)O)cc1)NC(=O)c1nc(Cl)c(N)nc1N` [PSA 23184, 2-(R)-amino-5-(4-{4-[N′-(3,5-diamino-6-chloropyrazine-2-carbonyl)-guanidino]butyl}phenyl)pentanoic acid]: the melting point was 190 to 192 °C (dec.). Also, in series [1], the 50% effective concentration (EC50) came out at 17 nM and the “Fold Amiloride** (PSA 4022 = 100) Mean” value was 43.3.
On to `N=C(NCCCCc1ccc(OCCNCC(N)C(N)=O)cc1)NC(=O)c1nc(Cl)c(N)nc1N` (centres unmarked) (as salt: hydrochloride) [PSA 18704, 2-amino-3-[2-(4-{4-[N′-(3,5-diamino-6-chloropyrazine-2-carbonyl)-guanidino]butyl}phenoxy)ethylamino]propionamide tri-hydrochloride], for which the melting point was determined as 160 °C.
On to `N=C(NCCCCc1ccc(NCCN)cc1)NC(=O)c1nc(Cl)c(N)nc1N` [PSA 16436, N-{4-[4-(2-aminoethylamino)phenyl]butyl}-N′-(3,5-diamino-6-chloropyrazine-2-carbonyl)guanidine], for which, in series [1], the EC50 is 15.4 nM and the “Fold Amiloride** (PSA 4022 = 100) Mean” value was 35.6.
For `N=C(N)NCCNc1ccc(CCCCNC(=N)NC(=O)c2nc(Cl)c(N)nc2N)cc1` [PSA 17339, N-(3,5-diamino-6-chloropyrazine-2-carbonyl)-N′-{4-[(2-guanidinoethylamino)phenyl]butyl}guanidine trihydrochloride], the EC50 in series [1] came out at 6.83 nM.
Turning to `Cl.N=C(N)NCC(O)COc1ccc(CCCCNC(=N)NC(=O)c2nc(Cl)c(N)nc2N)cc1` (centres unmarked) [PSA 11975, N-(3,5-diamino-6-chloropyrazine-2-carbonyl)-N′-{4-[4-(3-guanidino-2-hydroxypropoxy)phenyl]butyl}guanidine hydrochloride], in series [1], the EC50 is 4.85 nM and the “Fold Amiloride** (PSA 4022 = 100) Mean” value came to 287.
For `N=C(NCCCCc1ccc(OCCNCC(N)C(N)=O)cc1)NC(=O)c1nc(Cl)c(N)nc1N` (centres unmarked) [PSA 18704, 2-amino-3-[2-(4-{4-[N′-(3,5-diamino-6-chloropyrazine-2-carbonyl)-guanidino]butyl}phenoxy)ethylamino]propionamide tri-hydrochloride], in that order: 14.1 nM and 90.2.
As to `COC(=O)C(N)CCOc1ccc(CCCCNC(=N)NC(=O)c2nc(Cl)c(N)nc2N)cc1` (centres unmarked) [PSA 17587, 2-amino-4-(4-{4-[N′-(3,5-diamino-6-chloropyrazine-2-carbonyl)-guanidino]butyl}phenoxy)butyric acid methyl ester hydrochloride], in series [1], a half-maximal response (EC50) required 19.4 nM and the “Fold Amiloride** (PSA 4022 = 100) Mean” value amounted to 31.3.
Turning to `N=C(NCCCCc1ccc(NC[C@@H](O)CO)cc1)NC(=O)c1nc(Cl)c(N)nc1N` [PSA 16722, N-(3,5-diamino-6-chloropyrazine-2-carbonyl)-N′-{4-[4-((2R)-2,3-dihydroxypropylamino)phenyl]butyl}guanidine], in series [1], the midpoint of the response, the EC50, lay at 22.8 nM and the “Fold Amiloride** (PSA 4022 = 100) Mean” value came out at 50.5.
The like results for `N=C(N)NCCC(=O)Nc1ccc(CCCCNC(=N)NC(=O)c2nc(Cl)c(N)nc2N)cc1` [PSA 14984, N-(4-{4-[N′-(3,5-diamino-6-chloropyrazine-2-carbonyl)guanidino]-butyl}phenyl)-3-guanidinopropionamide dihydrochloride] were, in that order, 3.27 nM and 268.
